Laboratory results taken from patent publication US5624923A, “Tricyclic diazepine vasopressin antagonists and oxytocin antagonists” (priority 1995, dated 1997).
Each block holds one compound with its values, some of them ahead of it.

Assays:
[1] = target: T1, Rat Hepatic V1 Receptors (Rattus norvegicus, UniProt P30560); assay: Binding Assay to Rat Hepatic V1 Receptors; details: for IC50: rat liver membranes, read-out: V1 IC50; for inhibition at 10 µM: 2 h, rat
T1 construct: Rat liver plasma membranes expressing the vasopressin V1 receptor subtypes; from tissue; host or cells: rat liver plasma membranes
T1 sequence (P30560 whole entry): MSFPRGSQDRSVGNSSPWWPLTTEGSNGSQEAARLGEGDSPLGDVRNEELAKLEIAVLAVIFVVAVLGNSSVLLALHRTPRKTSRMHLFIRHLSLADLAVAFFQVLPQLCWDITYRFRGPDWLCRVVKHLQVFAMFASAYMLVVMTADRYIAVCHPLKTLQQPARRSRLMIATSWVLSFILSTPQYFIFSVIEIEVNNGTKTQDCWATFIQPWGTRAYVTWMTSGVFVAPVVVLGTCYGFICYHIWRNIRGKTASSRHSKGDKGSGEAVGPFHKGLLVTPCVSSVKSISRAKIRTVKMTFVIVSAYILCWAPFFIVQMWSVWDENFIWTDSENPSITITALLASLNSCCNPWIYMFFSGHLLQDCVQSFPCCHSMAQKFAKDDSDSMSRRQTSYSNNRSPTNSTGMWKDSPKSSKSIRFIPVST
Description: Binding Assay to Rat Hepatic V1 Receptors
Rat liver plasma membranes expressing the vasopressin V1 receptor subtypes are isolated by sucrose density gradient according to the method described by Lesko et al., (1973). These membranes are quickly suspended in 50.0 mM Tris.HCl buffer, pH 7.4, containing 0.2% bovine serum albumin (BSA) and 0.1 mM phenylmethylsulfonylfluoride (PMSF) and kept frozen at -70° C. until used in subsequent binding experiments. For binding experiments, the following is added to the wells of a ninety-six well format microtiter plate: 100 μl of 100.0 mM Tris.HCl buffer containing 10.0 mM MgCl2, 0.2% heat inactivated BSA and a mixture of protease inhibitors: leupeptin, 1.0 mg %; aprotinin, 1.0 mg %; 1,10-phenanthroiine,2.0 mg %; trypsin inhibitor, 10.0 mg % and 0.1 mM PMSF, 20.0 μl of [phenylalanyl-3,4,5, -^3 H] vasopressin (S.A. 45.1 Ci/mmole) at 0.8 nM, and the reaction initiated by the addition of 80 μl of tissue membranes containing 20 μg of tissue protein. The plates are kept undisturbed on the bench top at room temperature for 120 min. to reach equilibrium. Non-specific samples are assayed in the presence of 0.1 μM of the unlabeled antagonist phenylalanylvasopressin, added in 20.0 μl volume.
(§1) For test compounds, these are solubilized in 50% dimethylsulfoxide (DMSO) and added in 20.0 μl volume to a final incubation volume of 200 μl . Upon completion of binding, the content of each well is filtered off, using a Brandel® cell Harvester (Gaithersburg, Md.). The radioactivity trapped on the filter disk by the ligand-receptor complex is assessed by liquid scintillation counting in a Packard LS Counter, with an efficiency of 65% for tritium. The data are analyzed for IC50 values by the LUNDON-2 program for competition (LUNDON SOFTWARE, Ohio).

[2] = target: T2, Rat Kidney Medullary V2 Receptors (Rattus norvegicus, UniProt Q00788); assay: Binding Assay to Rat Kidney Medullary V2 Receptors; details: for IC50: rat kidney medulla membranes, read-out: V2 IC50; for inhibition at 10 µM: rat
T2 construct: Medullary tissues from rat kidneys are dissected out; from tissue; host or cells: rat kidney medulla membranes
T2 sequence (Q00788 whole entry): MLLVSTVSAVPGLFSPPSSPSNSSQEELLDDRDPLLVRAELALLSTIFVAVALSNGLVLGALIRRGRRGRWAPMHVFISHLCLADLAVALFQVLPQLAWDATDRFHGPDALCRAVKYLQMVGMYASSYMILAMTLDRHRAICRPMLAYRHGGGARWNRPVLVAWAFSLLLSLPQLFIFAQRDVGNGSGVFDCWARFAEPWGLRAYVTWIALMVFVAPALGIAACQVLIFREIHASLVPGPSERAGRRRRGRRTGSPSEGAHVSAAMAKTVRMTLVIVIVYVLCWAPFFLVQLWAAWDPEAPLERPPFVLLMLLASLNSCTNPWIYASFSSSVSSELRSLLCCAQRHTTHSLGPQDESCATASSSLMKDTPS
Description: Binding Assay to Rat Kidney Medullary V2 Receptors
Medullary tissues from rat kidneys are dissected out, cut into small pieces and soaked in a […] sodium chloride solution containing 1.0 mM EDTA with many changes of the liquid phase, until the solution is clear of blood. The tissue is homogenized in a 0.25M sucrose solution containing 1.0 mM EDTA and 0.1 mM PMSF using a Potter-Elvehjem homogenizer with a teflon pestle. The homogenate is filtered through several layers (4 layers) of cheese cloth. The filtrate is rehomogenized using a dounce homogenizer, with a tight fitting pestle. The final homogenate is centrifuged at 1500× g for 15 min. The nuclear pellet is discarded and the supernatant fluid recentrifuged at 40,000× g for 30 min. The resulting pellet formed contains a dark inner part with the exterior., slightly pink. The pink outer part is suspended in a small amount of 50.0 mM Tris. HCl buffer, pH 7.4. The protein content is determined by the Lowry's method (Lowry et al., J. Biol. Chem., 1953). The membrane suspension is stored at -70° C. in 50.0 mM Tris HCl, containing 0.2% inactivated BSA and 0.1 mM PMSF in aliquots of 1.0 ml containing 10.0 mg protein per ml of suspension until use in subsequent binding experiments.
as §1, with “The plates are left undisturbed on the bench top for 120 min to reach equilibrium. Non-specific binding is assessed in the presence of 1.0 μM of unlabeled ligand, added in 20 μl volume. For” for “For”, “μl.” for “μl .”

[3] = test system: Vasopressin V1; assay: Vasopressin V1 Antagonist Activity in Conscious Rats (vasopressin vasopressor response); assay type: in vivo, rat; set-up: Average Change: unit not given here; details: for % Inhibition / Average Change: SHR
Summary of the method: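 Conscious rats are restrained supine, and under local 2% procaine a PE 10/20 cannula is passed through the ventral caudal tail artery into the lower abdominal aorta. The caudal vein is cannulated for intravenous dosing. Blood pressure is recorded with a Statham P23Db transducer, and vasopressin injections are repeated after compound dosing. Percent antagonism is calculated against the pre-drug vasopressor response taken as 100%.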

[4] = 10 mg/kg i.v., VAS 0.01 i.u./kg, 30 min
[5] = 10 mg/kg i.v., VAS 0.02 i.u./kg, 30 min
[6] = 20 mg/kg i.v., VAS 0.01 i.u./kg, 60 min
[7] = 20 mg/kg i.v., VAS 0.01 i.u./kg, 90 min
[8] = 20 mg/kg i.v., VAS 0.01 i.u./kg, 120 min
[9] = 20 mg/kg i.v., VAS 0.01 i.u./kg, 180 min
[10] = 20 mg/kg i.v., VAS 0.01 i.u./kg, 240 min
[11] = 20 mg/kg i.v., VAS 0.01 i.u./kg, 300 min
[12] = 20 mg/kg i.v., VAS 0.02 i.u./kg, 60 min
[13] = 20 mg/kg i.v., VAS 0.02 i.u./kg, 90 min
[14] = 20 mg/kg i.v., VAS 0.02 i.u./kg, 120 min
[15] = 20 mg/kg i.v., VAS 0.02 i.u./kg, 180 min
[16] = 20 mg/kg i.v., VAS 0.02 i.u./kg, 240 min
[17] = 20 mg/kg i.v., VAS 0.02 i.u./kg, 300 min
[18] = 10 mg/kg i.v., VAS 0.01 i.u./kg, 60 min
[19] = 10 mg/kg i.v., VAS 0.01 i.u./kg, 90 min
[20] = 10 mg/kg i.v., VAS 0.01 i.u./kg, 120 min
[21] = 10 mg/kg i.v., VAS 0.01 i.u./kg, 180 min
[22] = 10 mg/kg i.v., VAS 0.01 i.u./kg, 240 min
[23] = 10 mg/kg i.v., VAS 0.01 i.u./kg, 300 min
[24] = 10 mg/kg i.v., VAS 0.02 i.u./kg, 60 min
[25] = 10 mg/kg i.v., VAS 0.02 i.u./kg, 90 min
[26] = 10 mg/kg i.v., VAS 0.02 i.u./kg, 120 min
[27] = 10 mg/kg i.v., VAS 0.02 i.u./kg, 180 min
[28] = 10 mg/kg i.v., VAS 0.02 i.u./kg, 240 min
[29] = 10 mg/kg i.v., VAS 0.02 i.u./kg, 300 min

IC50 [1]: 220 nM
IC50 [2]: 28 nM
SMILES: Cc1ccccc1C(=O)Nc1ccc(C(=O)N2Cc3cccn3Cc3sccc32)cc1 [Example 267, N-[4-(5H-Pyrrolo[1,2-a]thieno[3,2-e][1,4]diazepin-4(10H)-ylcarbonyl)phenyl]-2-methylbenzamide]
Max. % Inhibition ([3]; 10 mg/kg i.v.): 56%
Time (of max. % inhibition) ([3]; 10 mg/kg i.v.): 60 min

inhibition at 10 µM [1]: 63%
inhibition at 10 µM [2]: 80%
SMILES: Cc1c(CC(=O)Nc2ccc(C(=O)N3Cc4cccn4Cc4ccccc43)cc2)sc2ccccc12 [Example 87]
% Inhibition [3, 4]: 20%
Average Change [3, 4]: 50
% Inhibition [3, 5]: 14%
Average Change [3, 5]: 57
% Inhibition [3, 6]: 77%
Average Change [3, 6]: 14.5
% Inhibition [3, 7]: 61%
Average Change [3, 7]: 24.5
% Inhibition [3, 8]: 58%
Average Change [3, 8]: 26
% Inhibition [3, 9]: 58%
Average Change [3, 9]: 26.5
% Inhibition [3, 10]: 54%
Average Change [3, 10]: 28.5
% Inhibition [3, 11]: 52%
Average Change [3, 11]: 30
% Inhibition [3, 12]: 51%
Average Change [3, 12]: 32.5
% Inhibition [3, 13]: 50%
Average Change [3, 13]: 33.5
% Inhibition [3, 14]: 47%
Average Change [3, 14]: 35.5
% Inhibition [3, 15]: 44%
Average Change [3, 15]: 37.5
% Inhibition [3, 16]: 38%
Average Change [3, 16]: 41
% Inhibition [3, 17]: 27%
Average Change [3, 17]: 48.5

inhibition at 10 µM [1]: 96%
inhibition at 10 µM [2]: 87%
SMILES: O=C(c1ccc(NS(=O)(=O)c2ccccc2Cl)cc1)N1Cc2cccn2Cc2ccccc21 [Example 488, 10-[4-[[(2-Chlorophenyl)sulfonyl]amino]benzoyl]-10,11-dihydro-5H-pyrrolo[2,1-c][1,4]benzodiazepine]
Max. % Inhibition ([3]; 30 mg/kg i.v.): 43%
Time (of max. % inhibition) ([3]; 30 mg/kg i.v.): 60 min

IC50 [1]: 19 nM
IC50 [2]: 17 nM
SMILES: O=C(Cc1ccccc1F)Nc1ccc(C(=O)N2Cc3cccn3Cc3ccccc32)cc1 [Example 357, N-[4-(5H-Pyrrolo[2,1-c][1,4]benzodiazepin-10(11)ylcarbonyl)phenyl]-2-fluorobenzeneacetamide]
% Inhibition [3, 4]: 60%
Average Change [3, 4]: 16.5
% Inhibition [3, 18]: 89%
Average Change [3, 18]: 4.5
% Inhibition [3, 19]: 80%
Average Change [3, 19]: 8
% Inhibition [3, 20]: 80%
Average Change [3, 20]: 8
% Inhibition [3, 21]: 77%
Average Change [3, 21]: 9.5
% Inhibition [3, 22]: 66%
Average Change [3, 22]: 14
% Inhibition [3, 23]: 61%
Average Change [3, 23]: 16
% Inhibition [3, 5]: 68%
Average Change [3, 5]: 16
% Inhibition [3, 24]: 79%
Average Change [3, 24]: 10.5
% Inhibition [3, 25]: 79%
Average Change [3, 25]: 10.5
% Inhibition [3, 26]: 88%
Average Change [3, 26]: 6
% Inhibition [3, 27]: 78%
Average Change [3, 27]: 11
% Inhibition [3, 28]: 71%
Average Change [3, 28]: 14.5
% Inhibition [3, 29]: 68%
Average Change [3, 29]: 16

IC50 [1]: 420 nM
IC50 [2]: 740 nM
SMILES: O=C(Nc1ccc(C(=O)N2Cc3cccn3Cc3ccccc32)cc1)C1CCCO1 (stereo not drawn) [Example 600, N-[4-(5H-Pyrrolo[2,1-c][1,4]benzodiazepin-10(11H)-ylcarbonyl)phenyl]tetrahydrofurane-2-carboxamide]
Max. % Inhibition ([3]; 30 mg/kg i.v.): 78%
Time (of max. % inhibition) ([3]; 30 mg/kg i.v.): 60 min

IC50 [1]: 23 nM
IC50 [2]: 8 nM
SMILES: COc1cc(Cl)ccc1C(=O)Nc1ccc(C(=O)N2Cc3cccn3Cc3ccccc32)cc1 [Example 89, N-[4-(5H-Pyrrolo[2,1-c][1,4]benzodiazepin-10(11H)ylcarbonyl)phenyl]-4-chloro-2-methoxybenzamide]
% Inhibition [3, 4]: 88%
Average Change [3, 4]: 5
% Inhibition [3, 18]: 81%
Average Change [3, 18]: 7.5
% Inhibition [3, 19]: 81%
Average Change [3, 19]: 7.5
% Inhibition [3, 20]: 63%
Average Change [3, 20]: 15
% Inhibition [3, 21]: 38%
Average Change [3, 21]: 25
% Inhibition [3, 22]: 38%
Average Change [3, 22]: 25
% Inhibition [3, 23]: 31%
Average Change [3, 23]: 27.5
% Inhibition [3, 5]: 92%
Average Change [3, 5]: 5
% Inhibition [3, 24]: 84%
Average Change [3, 24]: 10
% Inhibition [3, 25]: 80%
Average Change [3, 25]: 12.5
% Inhibition [3, 26]: 56%
Average Change [3, 26]: 27.5
% Inhibition [3, 27]: 48%
Average Change [3, 27]: 32.5
% Inhibition [3, 28]: 44%
Average Change [3, 28]: 35
% Inhibition [3, 29]: 48%
Average Change [3, 29]: 32.5
